Values quoted from earlier work as cited in US11154558B2, “Prevention of atherosclerotic events with direct factor Xa inhibitors” (Adams Pharmaceuticals LLC, priority 2016, dated 2021).
Read-outs that look alike come from different tables or passages of the source.

Tests used:
[1] = test system: atherosclerotic plaques in ApoE^−/−mice
[2] = usual dose about 15 mg to about 20 mg per day
[3] = human, in vivo
[4] = human, in vivo; remark: listed apart in the source
hERG = hERG (Homo sapiens, UniProt Q12809)
Sequence of hERG (Q12809 whole entry): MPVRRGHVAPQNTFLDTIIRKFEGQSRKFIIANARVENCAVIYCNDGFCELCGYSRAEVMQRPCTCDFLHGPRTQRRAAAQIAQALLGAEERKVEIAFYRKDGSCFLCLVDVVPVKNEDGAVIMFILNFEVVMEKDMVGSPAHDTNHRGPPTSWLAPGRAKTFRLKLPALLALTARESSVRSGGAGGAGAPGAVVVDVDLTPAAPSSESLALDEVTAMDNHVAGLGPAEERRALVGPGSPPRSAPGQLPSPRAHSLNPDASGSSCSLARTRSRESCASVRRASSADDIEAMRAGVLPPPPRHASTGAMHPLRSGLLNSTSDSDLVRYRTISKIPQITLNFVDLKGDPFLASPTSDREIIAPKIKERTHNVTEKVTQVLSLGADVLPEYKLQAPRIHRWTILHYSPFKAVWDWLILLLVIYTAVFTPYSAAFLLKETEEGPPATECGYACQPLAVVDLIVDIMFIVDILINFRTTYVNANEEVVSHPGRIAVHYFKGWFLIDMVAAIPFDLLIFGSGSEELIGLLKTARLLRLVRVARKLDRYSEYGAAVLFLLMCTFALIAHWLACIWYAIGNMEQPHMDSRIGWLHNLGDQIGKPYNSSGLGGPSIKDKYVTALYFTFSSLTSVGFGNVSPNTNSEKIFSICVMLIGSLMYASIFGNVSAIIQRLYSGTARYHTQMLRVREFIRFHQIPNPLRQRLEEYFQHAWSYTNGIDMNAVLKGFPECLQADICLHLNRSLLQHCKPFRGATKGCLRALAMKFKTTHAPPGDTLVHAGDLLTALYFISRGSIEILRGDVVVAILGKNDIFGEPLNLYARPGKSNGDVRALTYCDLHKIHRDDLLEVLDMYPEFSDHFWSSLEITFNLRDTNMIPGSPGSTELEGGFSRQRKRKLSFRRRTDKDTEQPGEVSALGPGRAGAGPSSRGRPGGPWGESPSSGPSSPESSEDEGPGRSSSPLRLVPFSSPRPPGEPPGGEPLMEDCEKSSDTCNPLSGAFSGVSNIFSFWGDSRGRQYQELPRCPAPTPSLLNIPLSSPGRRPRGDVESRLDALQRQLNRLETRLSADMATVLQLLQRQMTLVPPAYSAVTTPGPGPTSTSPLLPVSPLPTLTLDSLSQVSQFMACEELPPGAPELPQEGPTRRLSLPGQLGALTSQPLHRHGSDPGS

[5] = ApoE−/− mice treated with rivaroxaban

risk of a major bleeding event ([2]; one reported study) [%] | risk of a major bleeding event ([2]; second study) [%] | patients affected by bleeding (major bleeding events) [4] [%] | SMILES | accumulation of macrophages in plaques [1, 5] | atherosclerotic plaque stability and plaque progression [1, 5] | collagen contents in atherosclerotic plaques [1, 5] | expression of matrix metallopeptidase-9 (MMP-9) [1, 5] | lipid deposition in plaques [1, 5] | plasma levels of FXa or thrombin antithrombin ([1]; ApoE−/− mice, administration of rivaroxaban) | direct effect on platelet aggregation (platelet aggregation) | prevalence of major bleeding versus placebo [3] | hERG affinity (hERG)
4.3 | 1.7 |  | O=C(NC[C@H]1CN(c2ccc(N3CCOCC3=O)cc2)C(=O)O1)c1ccc(Cl)s1 [rivaroxaban] | reduced accumulation | stabilized atherosclerotic plaques and attenuated plaque progression | increased collagen contents | decreased expression | decreased lipid deposition | did not change | no direct effect on platelet aggregation |  | 
 |  | 1.7 | COc1ccc(-n2nc(C(N)=O)c3c2C(=O)N(c2ccc(N4CCCCC4=O)cc2)CC3)cc1 [apixaban] |  |  |  |  |  |  | no direct effect on platelet aggregation | no increased prevalence of major bleeding | 
 |  |  | COc1ccc(NC(=O)c2ccc(C(=N)N(C)C)cc2)c(C(=O)Nc2ccc(Cl)cn2)c1 [Betrixaban] |  |  |  |  |  |  |  |  | low hERG affinity
